Reference: patent US20240360177A1, “PEPTIDES WITH ANTIMICROBIAL ACTIVITIES” (priority 2021, published 2024)
Values after ≈ are worked out from the molar mass of the structure shown. Like-named read-outs stand apart in the source and are kept apart here. Starred links: 1 amine or outer side, 2 acyl side, 3 side chain; linkers in the order of their positions; H or OH if unused. Non-standard residues stand in square brackets, D forms with d. Residues, ends and D or L forms follow the SMILES beside them. NH(CH2)9CO = O=C(CCCCCCCCCN[*:1])[*:2]; Aoc = NCCCCCCCC(=O)O; βAla = NCCC(=O)O

Assays:
[1] = Acute toxicity in CD-1 mice; conditions: both sexes, mouse, in vivo
Procedure: Acute toxicity and subacute toxicity of ACPs were tested in CD-1 mice. In the acute toxicity study, groups of CD-1 male or female mice were administered single intravenous or intraperitoneal escalating doses (n=2-3 per dose) of the peptides dissolved in normal saline for injection or in phosphate buffered saline. The intravenous dose was administered via tail vein with a slow push over 15-20 seconds. Doses were escalated based on tolerability.

[2] = Subacute toxicity in CD-1 mice; assay type: in vivo; conditions: daily IP for 7 days
Procedure: In the subacute toxicity study, groups of CD-1 male or female mice were administered seven consecutive daily intraperitoneal doses (n=3 per dose) of the peptides (SEQ ID NO: 7, SEQ ID NO: 29, SEQ ID NO: 53) dissolved in normal saline for injection. Each peptide was evaluated at 2 to 3 dose levels ranging from 2.5 to 7.5 mg/kg/day. Mice were weighed at least once daily and observed at least twice daily for any abnormal findings and determination of overall health. At 24 hrs after the last dose, mice were humanely euthanized, with blood collected through cardiac puncture into K2EDTA microtainers to assess hematological parameters. All three peptides were tolerated at the highest dose evaluated (7.5 mg/kg/day) for 7 days.

Endoproteinase Arg-C = biological target: T1, Endoproteinase Arg-C (Hathewaya histolytica, UniProt P09870); assay: Endoproteinase Arg-C digestion stability; assay type: in vitro ADME; conditions: 37° C.
T1 construct: purchased Sigma Aldrich 11370529001

[3] = Plasma pharmacokinetics after single IV or IP dose in mice; assay type: in vivo, CD-1 mice
Procedure: The in vitro enzymatic and serum stability of the peptides is manifested by the in vivo plasma pharmacokinetic (PK) profile. A single 5 mg/kg intravenous injection (via tail vein) and a single 7.5 mg/kg intraperitoneal dose of SEQ ID NO: 7 were administered to 2 groups of CD-1 mice (n=3 per group). […] Serial blood samples were collected from the saphenous vein into EDTA-K2 as anti-coagulant at time points up to 4 hrs or 8 hrs after the intravenous or intraperitoneal doses. Plasma was separated and analyzed by an LC-MS/MS method as follows. Due to the small blood volume collected from each mouse, the plasma was pooled from 3 mice before analysis. A 50 μL of plasma was protein precipitated with a 100 μL solution of 300 ng/mL TAT peptide ([…]; SEQ ID NO: 99) as the internal standard in 5% trichloroacetic acid. After centrifugation, an aliquot of the supernatant was injected onto an HPLC column (Waters ACQUITY UPLC HSS T3, 2.1*50 mm, 1.8 μm) eluted with a gradient of mobile phase containing 0.1% perfluoropentanoic acid (PFPA) in water and 0.1% PFPA in acetonitrile. The peptide and the internal standard were detected using a Triple Quad 6500+ mass spectrometer operated with electro-spray ionization in the positive-ion SRM mode. The calibration curve range was from 10 to 4000 ng/mL. The mean plasma concentration of SEQ ID NO: 7 after the single intravenous and intraperitoneal doses are depicted in FIG. 2.
C0 or Cmax is concentration at time of injection for IV dose, or maximal concentration after IP dose; tmax is the time when C0 or Cmax was observed; t1/2 is plasma half-life; AUC is area under the plasma concentration vs. time curve; F is absolute bioavailability.

C. albicans = conditions: 24 h
C. glabrata = conditions: 24 h
C. parapsilosis = conditions: 24 h
C. krusei = conditions: 24 h
C. auris = conditions: 24 h
C. tropicalis = conditions: 24 h
C. dubliniensis = conditions: 24 h
C. neoformans = conditions: 72 h
C. gattii = conditions: 72 h
Coccidioides species = conditions: N = 3 strains; 48-72 hrs; >50% inhibition
Fusarium spp. = conditions: 48 h
Scedosporium spp. = conditions: 72 h
Rhizopus arrhizus = conditions: 24 h
Paecilomyces variotii = conditions: 48 h
in vitro [4] = conditions: human, EC50 cytotoxicity in HepG2, intracellular ATP assay
in vitro [5] = conditions: human, human serum, full strength
[6] = test system: Staphylococcus aureus ATCC 29213; assay type: cell-based
[7] = test system: Escherichia coli ATCC 25922; assay type: cell-based
[8] = test system: Klebsiella pneumoniae ATCC 13883; assay type: cell-based
[9] = test system: Pseudomonas aeruginosa ATCC 27853; assay type: cell-based
[10] = test system: Salmonella senftenberg CDC 127; assay type: cell-based
[11] = test system: Shigella sonnei MMX 10772; assay: Antibacterial broth microdilution MIC, Shigella sonnei; assay type: cell-based; conditions: CAMHB
[12] = test system: Mycobacterium fortuitum ATCC 110; assay: Antibacterial broth microdilution MIC, Mycobacterium fortuitum; assay type: cell-based; conditions: 48 hrs
[13] = test system: Mycobacterium smegmatis ATCC 700084; assay type: cell-based; conditions: ATCC 700084, 48 h
[14] = test system: Trichophyton rubrum ATCC MYA-4438
[15] = test system: Epidermophyton floccosum ATCC 52066
[16] = test system: Microsporum gypseum ATCC 14683
[17] = single IP dose, read-out: Tolerated single intraperitoneal dose
[18] = single IV dose via tail vein, read-out: Tolerated single intravenous dose
[19] = CD-1, mouse, IP 7.5 mg/kg, plasma
[20] = CD-1, mouse, IV 5 mg/kg, plasma

T1 sequence (P09870 51-181): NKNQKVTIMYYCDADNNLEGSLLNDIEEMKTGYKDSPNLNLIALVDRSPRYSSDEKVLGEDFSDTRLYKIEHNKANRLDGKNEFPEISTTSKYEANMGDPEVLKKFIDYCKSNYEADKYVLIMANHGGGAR
T1 sequence (P09870 191-526): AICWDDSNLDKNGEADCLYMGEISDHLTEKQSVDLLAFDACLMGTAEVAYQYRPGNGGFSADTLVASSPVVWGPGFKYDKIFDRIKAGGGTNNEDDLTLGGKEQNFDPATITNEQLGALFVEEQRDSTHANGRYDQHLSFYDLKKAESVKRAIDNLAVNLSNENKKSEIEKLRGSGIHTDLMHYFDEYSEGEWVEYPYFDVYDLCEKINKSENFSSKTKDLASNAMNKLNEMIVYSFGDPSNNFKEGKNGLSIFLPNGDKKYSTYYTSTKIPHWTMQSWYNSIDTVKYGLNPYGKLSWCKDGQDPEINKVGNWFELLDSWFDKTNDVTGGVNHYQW

N=C(N)NCCC[C@@H](N)C(=O)N[C@@H](CCCNC(=N)N)C(=O)N[C@H](CCCNC(=N)N)C(=O)NCCC(=O)N[C@H](CCCNC(=N)N)C(=O)N[C@@H](CCCNC(=N)N)C(=O)N[C@H](CCCNC(=N)N)C(=O)NCCC(=O)N[C@H](CCCNC(=N)N)C(=O)N[C@@H](CCCNC(=N)N)C(=O)N[C@H](CCCNC(=N)N)C(=O)N[C@@H](CCCNC(=N)N)C(=O)NCCC(=O)N[C@H](CCCNC(=N)N)C(=O)N[C@@H](CCCNC(=N)N)C(=O)N[C@H](CCCNC(=N)N)C(=O)N[C@@H](CCCNC(=N)N)C(N)=O [SEQ ID NO: 7, rRr-(Apr)-rRr-(Apr)-rRrR-(Apr)-rRrR-NH2] (H-[dR]R[dR][βAla][dR]R[dR][βAla][dR]R[dR]R[βAla][dR]R[dR]R-NH2)
MTD [1, 17]: 10 to 15 mg/kg | MTD [1, 18]: 5 to 7.5 mg/kg | Tolerated dose (highest dose evaluated) [2]: 7.5 mg/kg/day | Clinical or hematological adverse effects ([2]; up to 7.5 mg/kg/day): No significant clinical or hematological adverse effects were observed | half-life at 427 μg/mL (Endoproteinase Arg-C; Endoproteinase Arg-C (isolated enzyme), read-out: Degradation half-life with Endoproteinase Arg-C (converted)): ~6 h | remaining at 6 h, 427 μg/mL (Endoproteinase Arg-C; Endoproteinase Arg-C, peptide 427 μg/mL, enzyme 3 μg/mL, 6 hrs, read-out: Percent peptide remaining after incubation with Endoproteinase Arg-C): 50.5% | AUC [3, 19]: 4740 ng·h/mL | Cmax [3, 19]: 1750 ng/mL | Tmax [3, 19]: 1 h | half-life [3, 19]: 1.69 h | AUC [3, 20]: 4420 ng·h/mL | C0 [3, 20]: 4480 ng/mL | Tmax [3, 20]: 0 h | half-life [3, 20]: 1.43 h | bioavailability ([3]; CD-1, mouse, plasma, IP 7.5 mg/kg, read-out: F (absolute bioavailability)): 74.8% | Tolerability of the PK doses ([3]; single 5 mg/kg IV and single 7.5 mg/kg IP): well tolerated | MIC C. albicans (C. albicans): 0.5 µg/mL (≈ 0.207 µM) | MIC C. glabrata (C. glabrata): 0.5 µg/mL (≈ 0.207 µM) | MIC C. parapsilosis (C. parapsilosis): 0.12 µg/mL (≈ 0.0497 µM) | MIC C. krusei (C. krusei): 0.5 µg/mL (≈ 0.207 µM) | MIC C. auris (C. auris): 1 µg/mL (≈ 0.414 µM) | MIC C. tropicalis (C. tropicalis): 0.25 µg/mL (≈ 0.103 µM) | MIC C. dubliniensis (C. dubliniensis): 0.25 µg/mL (≈ 0.103 µM) | MIC C. neoformans (C. neoformans): 0.25 µg/mL (≈ 0.103 µM) | MIC C. gattii (C. gattii): 0.25 µg/mL (≈ 0.103 µM) | MIC Range Coccidioides species (Coccidioides species): 0.25 to 0.5 µg/mL | MIC Range Fusarium spp. (Fusarium spp.): 0.12 to 0.5 µg/mL | MIC Range Scedosporium spp. (Scedosporium spp.): ≤0.12 µg/mL | MIC Range Lomentospora prolificans (Lomentospora prolificans): ≤0.12 µg/mL | MIC Range Rhizopus arrhizus (Rhizopus arrhizus): 1 to 8 µg/mL | MIC Range Paecilomyces variotii (Paecilomyces variotii): 0.25 µg/mL (≈ 0.103 µM) | MIC50 Candida species (Candida spp.): 0.5 µg/mL (≈ 0.207 µM) | MIC90 Candida species (Candida spp.): 1 µg/mL (≈ 0.414 µM) | EC50 (in vitro [4]): > 300 µg/mL | remaining at 2 h, 5 μM (in vitro [5]): ~100%

N=C(N)NCCC[C@@H](N)C(=O)N[C@@H](CCCNC(=N)N)C(=O)N[C@H](CCCNC(=N)N)C(=O)NCCCCCCCCCC(=O)N[C@H](CCCNC(=N)N)C(=O)N[C@@H](CCCNC(=N)N)C(=O)N[C@H](CCCNC(=N)N)C(=O)NCCCCCCCC(=O)N[C@H](CCCNC(=N)N)C(=O)N[C@@H](CCCNC(=N)N)C(=O)N[C@H](CCCNC(=N)N)C(=O)N[C@@H](CCCNC(=N)N)C(=O)NCCCCCCCC(=O)N[C@H](CCCNC(=N)N)C(=O)N[C@@H](CCCNC(=N)N)C(=O)N[C@H](CCCNC(=N)N)C(=O)N[C@@H](CCCNC(=N)N)C(=O)O [SEQ ID NO: 32, rRr-(Ada)-rRr-(Aoa)-rRrR-(Aoa)-rRrR] (H-[dR]R[dR][NH(CH2)9CO][dR]R[dR][Aoc][dR]R[dR]R[Aoc][dR]R[dR]R-OH)
MIC Staphylococcus aureus [6]: 8 µg/mL (≈ 3.01 µM) | MIC Escherichia coli [7]: 2 µg/mL (≈ 0.753 µM) | MIC Klebsiella pneumoniae [8]: 4 µg/mL (≈ 1.51 µM) | MIC Pseudomonas aeruginosa [9]: 16 µg/mL (≈ 6.02 µM) | MIC Salmonella senftenberg [10]: 4 µg/mL (≈ 1.51 µM) | MIC Shigella sonnei [11]: 4 µg/mL (≈ 1.51 µM) | MIC Mycobacterium fortuitum [12]: 2 µg/mL (≈ 0.753 µM) | MIC Mycobacterium smegmatis [13]: 0.5 µg/mL (≈ 0.188 µM) | MTD [1, 17]: 10 to 15 mg/kg | MTD [1, 18]: 5 to 7.5 mg/kg | MIC C. albicans (C. albicans): 1 µg/mL (≈ 0.376 µM) | MIC C. glabrata (C. glabrata): 0.5 µg/mL (≈ 0.188 µM) | MIC C. parapsilosis (C. parapsilosis): 0.25 µg/mL (≈ 0.0941 µM) | MIC C. krusei (C. krusei): 0.5 µg/mL (≈ 0.188 µM) | MIC C. auris (C. auris): 4 µg/mL (≈ 1.51 µM) | MIC C. tropicalis (C. tropicalis): 0.5 µg/mL (≈ 0.188 µM) | MIC C. dubliniensis (C. dubliniensis): 1 µg/mL (≈ 0.376 µM) | MIC C. neoformans (C. neoformans): 0.25 µg/mL (≈ 0.0941 µM) | MIC C. gattii (C. gattii): 0.25 µg/mL (≈ 0.0941 µM) | MIC Range Coccidioides species (Coccidioides species): 0.25 to 0.5 µg/mL | MIC Range Fusarium spp. (Fusarium spp.): 0.25 to 1 µg/mL | MIC Range Scedosporium spp. (Scedosporium spp.): ≤0.12 µg/mL | MIC Range Lomentospora prolificans (Lomentospora prolificans): 0.25 µg/mL (≈ 0.0941 µM) | MIC Range Rhizopus arrhizus (Rhizopus arrhizus): 0.5 to 8 µg/mL | MIC Range Paecilomyces variotii (Paecilomyces variotii): 0.25 µg/mL (≈ 0.0941 µM) | MIC Trichophyton rubrum [14]: 8 µg/mL (≈ 3.01 µM) | MIC Epidermophyton floccosum [15]: 4 µg/mL (≈ 1.51 µM) | MIC Microsporum gypseum [16]: >64 µg/mL | EC50 (in vitro [4]): > 300 µg/mL
